Converted amounts (≈) assume the structure as drawn. Like-named read-outs stand apart in the source and are kept apart here. Square brackets hold non-standard residues; d marks the D form. Peptide text beside a SMILES is read from it.
Experiments:
[1] = biological target: pepsin (from porcine stomach mucosa) (Sus scrofa, UniProt P00791); experiment: in vitro; settings: pig, pH 7.3
Experimental: (§1) In order to reach their target, the diastereomers have to withstand proteolytic digestion by proteases which may occur during the time of their administration site till they reach the target site. The susceptibility of the diastereomer 2 of the invention Is to proteolytic digestion by pepsin (from porcine stomach mucosa, Sigma), trypsin (from bovine pancreas, Sigma), and elastase (from human leukocytes, Sigma) was assessed by reverse-phase HPLC. As a control we used the native, all L-amino acid antimicrobial peptide cecropin B. Equal amounts of the peptides were dissolved in PBS (35 mM phosphate buffer/0.15 M NaCl, pH 7.3) at final concentration of 140 μM to which 25 μM of protease were added. The samples were incubated under agitation for 30 min at 37° C. After the addition of the appropriate protease inhibitor to stop the reaction, aliquots were injected to C18 column and the amounts of the intact diastereomers were evaluated using their absorbance at 215 nm.

[2] = biological target: trypsin (from bovine pancreas) (Bos taurus, UniProt P00760); experiment: in vitro; settings: pH 7.3
Experimental: as §1

[3] = biological target: T1, elastase (from human leukocytes) (Homo sapiens, UniProt P08246); experiment: Proteolytic digestion assessed by reverse-phase HPLC; assay type: in vitro ADME
T1 construct: elastase (from human leukocytes, Sigma); purchased Sigma; host or cells: human leukocytes (cell-derived)
T1 sequence (P08246 30-247 limits assumed): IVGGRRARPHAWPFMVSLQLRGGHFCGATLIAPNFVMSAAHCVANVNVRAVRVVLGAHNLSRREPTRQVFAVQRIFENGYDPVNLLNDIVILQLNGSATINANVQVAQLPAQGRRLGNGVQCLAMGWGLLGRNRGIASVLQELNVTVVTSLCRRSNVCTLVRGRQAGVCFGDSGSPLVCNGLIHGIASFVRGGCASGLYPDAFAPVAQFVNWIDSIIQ

[4] = test system: methicilin-resistant Staphylococcus aureus (MRSA) ATCC 700698; assay type: cell-based
Experimental: (§2) The antibacterial activity of the peptides was examined in sterile 96-well plates (Nunc F96 microtiter plates) in a final volume of 100 μl as follows: Aliquots (50 μl) of a suspension containing bacteria at concentration of 1×10^6 Colony-Forming Units (CFU)/ml in culture LB (Lauria broth) medium were added to 50 μl of water containing the peptide in serial 2-fold dilutions in water. Inhibition of growth was determined by measuring the absorbance at 600 nm with a Microplate autoreader E1309 (Bio-tek Instruments), after an incubation time of 18-20 h at 37° C. Antibacterial activities were expressed as the minimal inhibitory concentration (MIC), the concentration at which 100% inhibition of growth was observed after 18-20 h of incubation. The bacteria used were: Escherichia coli ATCC 25922, Acinetobacter baumannii ATCC 19606, Pseudomonas aeruginosa ATCC 27853, Staphylococcus aureus ATCC 6538P, Enterococcus faecalis ATCC 29212, Enterobacter cloacae ATCC 49141. The antibacterial activity of peptides 2 and 6 was also examined against resistant bacteria: methicilin-resistant Staphylococcus aureus ([…]) ATCC 700698 and vancomycin-resistant Enterococcus faecium (VRE) ATCC 700221.

[5] = test system: vancomycin-resistant Enterococcus faecium (VRE) ATCC 700221; assay type: cell-based
Experimental: as §2

[6] = test system: Aspergillus niger ATCC 9642; assay type: cell-based
Experimental: (§3) The antifungal activity of the diastereomers was examined in sterile 96-well plates (Nunc F96 microtiter plates) in a final volume of 200 μL as follows: 100 μl of a suspension containing fungi at concentration of 1×10^4 Colony-Forming Units (CFU)/ml in culture medium (RPMI 1640, 0.165 M MOPS pH 7.0, with L-glutamine, without NaHCO3) was added to 100 μl of water containing the peptide in serial 2-fold dilutions in water. The fungi were incubated in the presence of the diastereomeric peptides for 24-48 h at 35° C. in a Binder KB115 incubator under agitation. Growth inhibition was determined by measuring the absorbance at 620 nm with a Microplate autoreader E1309 (Bio-tek Instruments). Antifungal activity is expressed as the minimal inhibitory concentration (MIC), the concentration at which 100% inhibition of growth was observed after the incubation time mentioned above. The fungi used were: Aspergillus niger ATCC 9642, Candida albicans ATCC 10231 and Cryptococcus neoformans ATCC 66031.

[7] = test system: Candida albicans ATCC 10231; assay type: cell-based
Experimental: as §3

[8] = test system: Cryptococcus neoformans ATCC 66031; assay type: cell-based
Experimental: as §3

[9] = test system: B16 F10 mouse melanoma cell line; experiment: In vitro anticancer activity, Trypan blue cell viability, LC50
Experimental: (§4) The anticancer activity of the diastereomers 1, 2, 8, 9 and 10 was examined against B16 F10 mouse melanoma cell line. Melanoma cells were grown in RPMI-1640 medium supplemented with 10% fetal calf serum and antibiotics, at 37° C., in humidified atmosphere at 5% CO2 and 95% air. In addition, the cell-selectivity of the diastereomeric peptides was studied by examining their effect on NIH-3T3 normal fibroblasts cell line. NIH-3T3 mouse fibroblasts cells were grown in DMEM medium supplemented with 10% bovine calf serum and antibiotics under the same conditions as described above for B16 F10 mouse melanoma cells. Melanoma cells (2×10^5 cells ml^−1) or NIH-3T3 cells (2.5×10^5 cells ml^−1) were seeded in tissue culture plates (3.5 cm). After 48 h, cells were washed thrice with the corresponding medium. Then the cells were incubated at 37° C. in medium (without serum and antibiotics) in the presence of the tested diastereomeric peptides dissolved in PBS, at different concentrations. […] Following 24 h of incubation, the cells were harvested with trypsin (0.25%)-EDTA (0.05%) and centrifuiged for 10 min at 270×g. The precipitated cells were suspended in the corresponding medium and counted in a hemocytometer (Neubauer). Cell viability was determined by Trypan blue dye exclusion.

[10] = Cell selectivity, Trypan blue cell viability, LC50; assay type: cell-based, mouse; settings: 50% cell mortality after 24 h incubation, medium without serum, read-out: Lethal Concentration (LC50), NIH-3T3 fibroblasts
[11] = test system: Mycoplasma pneumoniae; assay type: cell-based; settings: 1 h
Experimental: In order to examine the activity of the diastereomers of the invention against mycoplasma, 500 μl of Mycoplasma pneumoniae cells were introduced into a cell culture flask containing 50 ml of SP-4 growth media (Jacob et al., 1985). The cells were grown at 37° C. for 3-4 days. Before the assay, the mycoplasma cells were washed 3 times with serum-free medium (without fetal calf serum) and then harvested into 5 ml of the same medium. The cells' concentration was adjusted to approximately 1×10^6 cells ml^−1. Thereafter, 150 μl of either diastereomer 1 or 2 in phosphate-buffered saline (PBS) were added to 150 μl mycoplasma cells. The mixture was incubated for 1 hour at room temperature. As a control, cells were incubated with PBS alone. At the end of the incubation period, 150 μl of the mixture were inoculated into tissue culture flasks (in duplicate) containing 15 ml SP-4 media. After 3-4 days, the mycoplasma viability was determined by counting the number of cells grown in each flask.

[12] = In vitro anticancer activity, Trypan blue cell viability, LC50
Experimental: as §4

trypsin (from bovine pancreas), sequence (P00760 24-246): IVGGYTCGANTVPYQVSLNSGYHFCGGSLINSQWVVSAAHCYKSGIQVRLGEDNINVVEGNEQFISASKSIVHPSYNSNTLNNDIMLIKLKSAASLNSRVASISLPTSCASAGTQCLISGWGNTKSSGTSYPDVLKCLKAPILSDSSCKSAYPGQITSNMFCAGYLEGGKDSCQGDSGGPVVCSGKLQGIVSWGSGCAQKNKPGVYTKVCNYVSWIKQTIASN
pepsin (from porcine stomach mucosa), sequence (P00791 60-385): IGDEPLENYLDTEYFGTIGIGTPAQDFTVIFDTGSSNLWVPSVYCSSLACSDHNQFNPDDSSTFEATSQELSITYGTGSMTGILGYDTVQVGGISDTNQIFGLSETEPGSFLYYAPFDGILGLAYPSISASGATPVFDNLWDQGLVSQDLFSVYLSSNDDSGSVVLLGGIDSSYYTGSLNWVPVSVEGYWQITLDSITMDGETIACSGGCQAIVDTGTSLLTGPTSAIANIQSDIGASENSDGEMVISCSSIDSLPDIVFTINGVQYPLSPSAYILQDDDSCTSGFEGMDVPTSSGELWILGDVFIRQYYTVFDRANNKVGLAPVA

CC[C@H](C)[C@H](NC(=O)CNC(=O)[C@H](CC(N)=O)NC(=O)[C@H](CCCNC(=N)N)NC(=O)[C@@H](NC(=O)[C@H](CC(N)=O)NC(=O)[C@H](CCCNC(=N)N)NC(=O)CNC(=O)[C@H](CCSC)NC(=O)[C@H](CCCCN)NC(=O)[C@H](CCC(=O)O)NC(=O)[C@@H](NC(=O)[C@H](CCCCN)NC(=O)[C@H](CCCCN)NC(=O)[C@H](Cc1ccccc1)NC(=O)[C@@H](NC(=O)[C@H](CCCCN)NC(=O)[C@H](Cc1c[nH]c2ccccc12)NC(=O)[C@@H](N)CCCCN)C(C)C)[C@@H](C)CC)[C@@H](C)CC)C(=O)N[C@H](C(=O)N[C@@H](CCCCN)C(=O)N[C@@H](C)C(=O)NCC(=O)N1CCC[C@H]1C(=O)N[C@@H](C)C(=O)N[C@H](C(=O)N[C@@H](C)C(=O)N[C@H](C(=O)N[C@@H](CC(C)C)C(=O)NCC(=O)N[C@@H](CCC(=O)O)C(=O)N[C@@H](C)C(=O)N[C@@H](CCCCN)C(=O)N[C@@H](C)C(=O)N[C@@H](CC(C)C)C(N)=O)C(C)C)[C@@H](C)CC)C(C)C [Cecropin B, cecropin B, reference compound] (H-KWKVFKKIEKMGRNIRNGIVKAGPAIAVLGEAKAL-NH2)
metabolised at 0.5 h, 140 μM [1]: 100% | metabolised at 0.5 h, 140 μM [2]: 100% | metabolised at 0.5 h, 140 μM ([3]; elastase from human leukocytes, 140 μM peptide, 25 μM protease, 30 min at 37° C., PBS pH 7.3, read-out: Proteolytic digestion, Elastase): 100%

CC(C)C[C@H](NC(=O)[C@H](CC(C)C)NC(=O)[C@@H](CCCCN)NC(=O)[C@@H](CCCCN)NC(=O)[C@H](CC(C)C)NC(=O)[C@@H](CC(C)C)NC(=O)[C@H](CCCNC(=N)N)NC(=O)[C@H](CC(C)C)NC(=O)[C@@H](CC(C)C)NC(=O)[C@H](CC(C)C)NC(=O)[C@@H](N)CCCCN)C(=O)N[C@@H](CCCNC(=N)N)C(=O)N[C@H](CC(C)C)C(=O)N[C@@H](CC(C)C)C(=O)N[C@@H](CCCCN)C(N)=O [Peptide 6, [D]-L^3,6,13,K^8,9-K4R2L9] (H-KL[dL]LR[dL]L[dK][dK]LLR[dL]LK-NH2; N-terminus assumed)
Activity against resistant bacteria MRSA [4]: highly active | Activity against resistant bacteria VRE [5]: highly active | MIC, A. niger ATCC 9642 [6]: 200 µg/mL (≈ 107 µM) | MIC, C. albicans ATCC 10231 [7]: 150 µg/mL (≈ 80.6 µM) | MIC, C. neoformans ATCC 66031 [8]: 1.5 µg/mL (≈ 0.806 µM)

CC(C)C[C@H](NC(=O)[C@H](CCCCN)NC(=O)[C@H](CC(C)C)NC(=O)[C@@H](CC(C)C)NC(=O)[C@H](CC(C)C)NC(=O)[C@@H](N)CCCCN)C(=O)N[C@@H](CC(C)C)C(=O)N[C@H](CCCCN)C(=O)N[C@H](CCCCN)C(=O)N[C@@H](CC(C)C)C(=O)N[C@@H](CC(C)C)C(=O)N[C@@H](CCCCN)C(=O)N[C@H](CC(C)C)C(=O)N[C@@H](CC(C)C)C(=O)N[C@@H](CCCCN)C(N)=O [Peptide 2, [D]-L^3,13,K^8,9-K6L9] (H-KL[dL]LKLL[dK][dK]LLK[dL]LK-NH2)
MIC, A. niger ATCC 9642 [6]: 50 µg/mL (≈ 27.7 µM) | MIC, C. albicans ATCC 10231 [7]: 100 µg/mL (≈ 55.4 µM) | MIC, C. neoformans ATCC 66031 [8]: 1.4 µg/mL (≈ 0.776 µM) | Lethal Concentration (LC50), B16-F10 melanoma ([9]; 50% cell mortality after 24 h incubation, medium without serum): 9 µg/mL | CC50 at 24 h ([10]; mouse, NIH-3T3 fibroblasts): 30 µg/mL (≈ 16.6 µM) | metabolised at 0.5 h, 140 μM [1]: 10% | metabolised at 0.5 h, 140 μM [2]: 32% | metabolised at 0.5 h, 140 μM ([3]; isolated enzyme elastase, pH 7.3): 6% | MIC against Mycoplasma [11]: 12.5 µg/mL (≈ 6.93 µM)

CC(C)C[C@H](NC(=O)[C@H](CCCCN)NC(=O)[C@@H](CC(C)C)NC(=O)[C@@H](CC(C)C)NC(=O)[C@H](CC(C)C)NC(=O)[C@@H](N)CCCCN)C(=O)N[C@@H](CC(C)C)C(=O)N[C@H](CC(C)C)C(=O)N[C@@H](CCCCN)C(=O)N[C@H](CC(C)C)C(=O)N[C@@H](CC(C)C)C(=O)N[C@@H](CCCCN)C(N)=O [Peptide 1, [D]-L^3,4,8,10-K4L8, reference compound] (H-KL[dL][dL]KLL[dL]K[dL]LK-NH2; N-terminus assumed)
Activity against A. niger [6]: inactive | MIC, A. niger ATCC 9642 [6]: >200 µg/mL | Activity against C. albicans [7]: inactive | MIC, C. albicans ATCC 10231 [7]: >200 µg/mL | MIC, C. neoformans ATCC 66031 [8]: 4.7 µg/mL (≈ 3.28 µM) | CC50 [12]: 90 µg/mL (≈ 62.7 µM) | Selectivity between melanoma and NIH-3T3 cell lines ([9]; B16 F10 vs NIH-3T3): active against both cell lines at similar concentration | CC50 [10]: 100 µg/mL (≈ 69.7 µM) | MIC against Mycoplasma [11]: 50 µg/mL (≈ 34.8 µM)
